Measurements: the NIST ThermoML archive (doi:10.1021/je4004977)
Numbers after ± are expanded uncertainties.

Conditions: for viscosity / mass density: 101.33 kPa; for viscosity / mass density / vapor or sublimation pressure: Liquid; for viscosity: Capillary tube (Ostwald / Ubbelohde) method; for surface tension liquid-gas: Drop volume; for mass density: Pycnometric method; for vapor or sublimation pressure: Closed cell (Static) method

CC(O)COC(C)COC(C)COC(C)CO (stereo not drawn) [2-[2-[2-(2-hydroxypropoxy)propoxy]propoxy]-1-propanol]
Conditions | mass density [kg/m3] | surface tension liquid-gas [mN/m] | vapor or sublimation pressure [kPa] | viscosity [mPa·s]
288.15 K | – | – | – | 105.44 ± 1.4
293.15 K | – | – | – | 67.81 ± 0.43
298.15 K | 1019.6 ± 0.3 | 34.3 ± 0.2 | – | –
299.15 K | – | – | – | 44.89 ± 0.24
303.15 K | – | – | – | 35.66 ± 0.2
308.15 K | 1013.7 ± 0.3 | 33.4 ± 0.2 | – | 27.85 ± 0.17
313.15 K | – | – | – | 22.48 ± 0.15
318.15 K | 1007.9 ± 0.4 | 32.6 ± 0.2 | – | 17.97 ± 0.13
323.15 K | – | – | – | 14.32 ± 0.12
328.15 K | 1001.3 ± 0.4 | 31.8 ± 0.2 | – | 11.58 ± 0.12
333.15 K | – | – | – | 9.39 ± 0.11
338.15 K | 995.4 ± 0.4 | – | – | 7.65 ± 0.11
344.15 K | – | – | – | 6.04 ± 0.11
348.15 K | 988.8 ± 0.4 | 30.2 ± 0.2 | – | 5.22 ± 0.1
353.15 K | 985.1 ± 0.4 | – | – | 4.42 ± 0.1
358.15 K | 982.5 ± 0.5 | – | – | 3.84 ± 0.1
363.15 K | 979 ± 0.5 | – | – | 3.38 ± 0.1
368.15 K | 975.5 ± 0.5 | 28.5 ± 0.2 | – | 3 ± 0.1
373.15 K | – | – | – | 2.62 ± 0.1
378.15 K | – | 27.7 ± 0.2 | – | 2.28 ± 0.1
383.15 K | 965.4 ± 0.5 | – | – | 1.9 ± 0.1
388.15 K | – | – | – | 1.48 ± 0.1
393.15 K | 958.7 ± 0.5 | – | – | 1.02 ± 0.1
398.15 K | – | 26.1 ± 0.2 | – | –
403.15 K | 951.4 ± 0.5 | – | – | –
408.15 K | – | 25.2 ± 0.2 | – | –
409.85 K | – | – | 0.01 | –
413.15 K | 944.3 ± 0.6 | – | – | –
418.15 K | – | 24.4 ± 0.2 | – | –
423.15 K | 937 ± 0.6 | – | – | –
428.15 K | – | 23.6 ± 0.2 | – | –
433.15 K | 928.9 ± 0.6 | – | – | –
438.15 K | – | 22.7 ± 0.2 | – | –
443.15 K | 919.4 ± 0.6 | – | – | –
448.15 K | – | 21.9 ± 0.2 | – | –
458.15 K | – | 21.1 ± 0.2 | – | –
462.55 K | – | – | 2.68 ± 0.03 | –
468.15 K | – | 20.2 ± 0.2 | – | –
480.15 K | – | – | 5.34 ± 0.03 | –
486.15 K | – | – | 6.66 ± 0.03 | –
492.15 K | – | – | 8.02 ± 0.03 | –
500.15 K | – | – | 10.72 ± 0.04 | –
507.15 K | – | – | 13.36 ± 0.04 | –
513.15 K | – | – | 16.05 ± 0.04 | –
518.15 K | – | – | 18.79 ± 0.05 | –
522.15 K | – | – | 21.34 ± 0.05 | –
527.15 K | – | – | 24.02 ± 0.05 | –
530.15 K | – | – | 26.71 ± 0.06 | –
537.15 K | – | – | 32.05 ± 0.06 | –
543.15 K | – | – | 37.42 ± 0.07 | –
545.15 K | – | – | 40.02 ± 0.08 | –
550.15 K | – | – | 45.37 ± 0.09 | –
554.15 K | – | – | 50.69 ± 0.1 | –
556.15 K | – | – | 53.36 ± 0.1 | –
560.15 K | – | – | 58.74 ± 0.11 | –
564.15 K | – | – | 64.02 ± 0.12 | –
567.15 K | – | – | 69.28 ± 0.13 | –
570.15 K | – | – | 74.63 ± 0.14 | –
575.15 K | – | – | 83.34 ± 0.15 | –
582.15 K | – | – | 101.02 ± 0.18 | –
